Data: PubChem BioAssay AID2060505 (Molecular Pharmacology Branch, DTP, NCI, 2025)
“And” between values parts separate entries of the source, which are not always exact repeats. Equal values may be shown once.

System: 633275-114-R-J1-PDC complex spheroids, viability
Assay: Anticancer human tumor 633275-114-R-J1-PDC patient-derived endometrial adenocarcinoma cell line growth inhibition [GQUAD]
Conditions: for viability, T/C: stronger effect = lower value
Source text: DNA G-quadruplex Stabilizer Agents in Combinations in Complex Spheroids
A high-throughput screen of multi-cell type tumor spheroids was designed to identify active combinations of DNA G-quadruplex stabilizer agents and targeted small molecules. Complex spheroids include a stromal component modeled by human endothelial cells (HUVEC) and fibroblasts modeled by human mesenchymal stem cells (MSCs). The concentration ranges selected for each drug and investigational agent were based upon clinically achievable concentrations if the clinical Cmax of the agent was known.
Compounds. The drugs and investigational agents: pidnarulex (CX-5461; NSC782164), APTO-253 (NSC789042), BRACO-19 (NSC847499), peposertib (NSC802822), ceralasertib (NSC780249), elimusertib (NSC800525), camonsertib (NSC841442), AZD-1390 (NSC803789), olaparib (NSC753686), talazoparib (NSC767125), ART-558 (NSC835418), sotorasib (NSC818433), MRTX-1133 (NSC836407), SN-38 (NSC673596), topotecan (NSC609699), etoposide (NSC141540), doxorubicin (NSC123127), gemcitabine (NSC613327), 5-fluorouracil (NSC19893), paclitaxel (NSC125973), vemurafenib (NSC761431), panobinostat (NSC761190), R-306465 (JNJ-16241199; NSC773264), adavosertib (NSC754352), TP-3654 (NSC805149), carboplatin (NSC241240), KSQ-4279 (NSC840948), and staurosporine (NSC755774) were obtained from the National Cancer Institute (NCI) Developmental Therapeutics Program Chemical Repository (34). The FDA-approved anticancer drug set is available from the NCI Developmental Therapeutics Program. […] The stock solutions were prepared in dimethyl sulfoxide (DMSO, Sigma-Aldrich, St. Louis, MO, cat. D2650) at 800-fold the tested concentration and stored at -70 degrees C prior to their use. All drugs and investigational agents were tested over a range starting from a high concentration at or near the clinical Cmax and decreasing in half-log increments. If the clinical Cmax for an agent had not been determined, the highest concentration tested was 10 microM.
2.3 Cell Culture. All cells were maintained in an incubator at 37 degrees C and 5% CO2 with 95% humidity. The PDC lines were cultured according to standard operating procedures established by the NCI PDMR. All PDCs were thawed and cultured in Matrigel-coated flasks prepared with a working solution of 1X Ham's F-12 nutrient mix, without supplementation (Invitrogen, cat. 11765054), 100 U/mL penicillin-streptomycin (Invitrogen, cat. 15140122), and 2.5% Matrigel (Corning Inc., cat. 354248) for the first three passages. The 857933-349-R-J2-PDC line was cultured in 6C/Colon 1B media, which includes advanced DMEM/F-12 (Thermo Fisher Scientific, cat. 12634028), 10 mM HEPES (Thermo Fisher Scientific, cat. 15630080), 1X GlutaMAX supplement (Thermo Fisher Scientific, cat. 35050061), 0.1 mg/mL primocin (InvivoGen, cat. ant-pm-2), 10% defined fetal bovine serum, heat inactivated (HyClone Laboratories Inc., cat. SH30070.03HI), 50% L-WRN conditioned media (ATCC, cat. CRL-3276), 1.25 mM N-Acetyl-L-cysteine (Sigma-Aldrich, cat. A9165), 10 mM nicotinamide (Sigma-Aldrich, cat. N0636), 1X B-27 supplement (Thermo Fisher Scientific, cat. 17504044), 1X N-2 supplement (Thermo Fisher Scientific, cat. 17502048), 10 microM Y-27632 dihydrochloride (Tocris Bioscience, cat. 1254), and 50 ng/mL human EGF recombinant protein (Thermo Fisher Scientific, cat. PHG0311). The 485176-168-R4-J1-PDC line was cultured in Panc media, which includes all 6C/Colon 1B media components plus 100 ng/mL human FGF-10 (Thermo Fisher Scientific, cat. 100-26), 500 nM SB-431542 (Selleckchem, cat. S1067), and gastrin (Tocris, cat. 3006).
[…]
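Note: spheroids exposed to the agents for seven days.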
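Throughout, for viability, T/C: percent of DMSO vehicle control viability which is 100%.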

## CC(C)(O)C1CCC(Nc2ccc3ncc(-c4cccc(C(F)(F)F)c4)n3n2)CC1 (centres undefined) + CN(C)c1ccc(Nc2c3ccc(NC(=O)CCN4CCCC4)cc3nc3cc(NC(=O)CCN4CCCC4)ccc23)cc1
Curve of first compound, second compound 0.0316 µM
  IC50: 1850 nM
Curve of first compound, second compound 0.1 µM
  IC50: 1990 nM
Curve of first compound, second compound 0.316 µM
  IC50: 2090 nM
Curve of first compound, second compound 1 µM
  IC50: 1820 nM
Curve of first compound, second compound 3.16 µM
  IC50: 1310 nM
Curve of first compound, second compound 10 µM
  IC50: < 31.6 nM
Second compound 0.0316 µM, first compound 0.0316 µM
  viability, T/C: 102%
Second compound 0.0316 µM, first compound 0.1 µM
  viability, T/C: 96.8%
Second compound 0.0316 µM, first compound 0.316 µM
  viability, T/C: 90.1%
Second compound 0.0316 µM, first compound 1 µM
  viability, T/C: 72.2%
Second compound 0.0316 µM, first compound 3.16 µM
  viability, T/C: 28.8%
Second compound 0.0316 µM, first compound 10 µM
  viability, T/C: 32.2%
Second compound 0.1 µM, first compound 0.0316 µM
  viability, T/C: 94%
Second compound 0.1 µM, first compound 0.1 µM
  viability, T/C: 99.9%
Second compound 0.1 µM, first compound 0.316 µM
  viability, T/C: 88.2%
Second compound 0.1 µM, first compound 1 µM
  viability, T/C: 70.4%
Second compound 0.1 µM, first compound 3.16 µM
  viability, T/C: 32.8%
Second compound 0.1 µM, first compound 10 µM
  viability, T/C: 39.7%
Second compound 0.316 µM, first compound 0.0316 µM
  viability, T/C: 97.6%
Second compound 0.316 µM, first compound 0.1 µM
  viability, T/C: 87.7%
Second compound 0.316 µM, first compound 0.316 µM
  viability, T/C: 92.6%
Second compound 0.316 µM, first compound 1 µM
  viability, T/C: 76.1%
Second compound 0.316 µM, first compound 3.16 µM
  viability, T/C: 32.7%
Second compound 0.316 µM, first compound 10 µM
  viability, T/C: 37.8%
Second compound 1 µM, first compound 0.0316 µM
  viability, T/C: 94.6%
Second compound 1 µM, first compound 0.1 µM
  viability, T/C: 97.2%
Second compound 1 µM, first compound 0.316 µM
  viability, T/C: 88.3%
Second compound 1 µM, first compound 1 µM
  viability, T/C: 73%
Second compound 1 µM, first compound 3.16 µM
  viability, T/C: 27.8%
Second compound 1 µM, first compound 10 µM
  viability, T/C: 28.2%
Second compound 3.16 µM, first compound 0.0316 µM
  viability, T/C: 85.4%
Second compound 3.16 µM, first compound 0.1 µM
  viability, T/C: 69.2%
Second compound 3.16 µM, first compound 0.316 µM
  viability, T/C: 81.9%
Second compound 3.16 µM, first compound 1 µM
  viability, T/C: 59.5%
Second compound 3.16 µM, first compound 3.16 µM
  viability, T/C: 19.1%
Second compound 3.16 µM, first compound 10 µM
  viability, T/C: 20.4%
Second compound 10 µM, first compound 0.0316 µM
  viability, T/C: 33.1%
Second compound 10 µM, first compound 0.1 µM
  viability, T/C: 32.3%
Second compound 10 µM, first compound 0.316 µM
  viability, T/C: 23.7%
Second compound 10 µM, first compound 1 µM
  viability, T/C: 21.1%
Second compound 10 µM, first compound 3.16 µM
  viability, T/C: 7.71%
Second compound 10 µM, first compound 10 µM
  viability, T/C: 6.08%

## COc1cc(C2c3cc4c(cc3C(OC3OC5COC(C)OC5C(O)C3O)C3COC(=O)C23)OCO4)cc(OC)c1O (centres undefined)
Compound 0.0316 µM
  viability, T/C: 90.9% and 82.6% and 84.5%
Compound 0.1 µM
  viability, T/C: 71.1% and 64.9% and 66.1%
Compound 0.316 µM
  viability, T/C: 50.1% and 51.4% and 46.9%
Compound 1 µM
  viability, T/C: 44.4% and 42.1% and 49.9%
Compound 3.16 µM
  viability, T/C: 38.2% (2×) and 36.1%
Compound 10 µM
  viability, T/C: 32.7% and 30.8% and 28.3%
Curve of compound
  IC50: 442 nM and 384 nM and 466 nM
